Reference: ChEMBL document CHEMBL6134791, “Stereochemical optimization of N,2-substituted cycloalkylamines as norepinephrine reuptake inhibitors” (RSC Med Chem, 2024)

Molecular target: Sodium-dependent noradrenaline transporter (Homo sapiens, UniProt P23975)
Assay: Inhibition of NET (unknown origin) expressed in Jump In T-REx HEK293 cells assessed as decrease in norepinephrine-induced cellular response preincubated for 1 hr followed by norepinephrine stimulation measured for 30 mins by TRACT assay
Format: cell-based

Sequence of Sodium-dependent noradrenaline transporter (P23975 whole entry): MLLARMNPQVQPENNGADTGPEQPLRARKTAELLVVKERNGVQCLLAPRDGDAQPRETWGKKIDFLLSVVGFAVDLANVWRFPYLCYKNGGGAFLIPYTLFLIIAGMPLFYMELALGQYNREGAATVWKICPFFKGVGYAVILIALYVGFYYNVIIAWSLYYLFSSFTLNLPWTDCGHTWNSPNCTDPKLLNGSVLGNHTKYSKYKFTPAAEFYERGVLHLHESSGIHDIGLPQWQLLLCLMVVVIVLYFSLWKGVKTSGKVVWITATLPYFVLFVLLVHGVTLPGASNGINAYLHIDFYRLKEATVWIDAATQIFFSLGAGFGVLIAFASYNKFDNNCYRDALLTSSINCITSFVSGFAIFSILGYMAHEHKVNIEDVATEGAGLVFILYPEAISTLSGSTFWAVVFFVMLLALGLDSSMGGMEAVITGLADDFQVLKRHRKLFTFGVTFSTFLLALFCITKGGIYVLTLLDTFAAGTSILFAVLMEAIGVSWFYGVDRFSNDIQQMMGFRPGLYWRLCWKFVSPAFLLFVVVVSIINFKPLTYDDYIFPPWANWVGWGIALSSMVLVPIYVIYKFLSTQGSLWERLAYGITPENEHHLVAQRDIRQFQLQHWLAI

| IC50 | SMILES |
| --- | --- |
| 501 nM | OCCCCNC1CCCCC1c1ccc(Cl)c(Cl)c1 (configuration not stated) |
| 100 nM | COCCCCNC1CCCC1c1ccc(Cl)c(Cl)c1 (configuration not stated) |
| 631 nM | Clc1ccc(C2CCCC2NCc2ccccc2)cc1Cl (configuration not stated) |
| 79.4 nM | OCCNC1CCCC1c1ccc(Cl)c(Cl)c1 (configuration not stated) |
| 316 nM | CNCCCCNC1CCCC1c1ccc(Cl)c(Cl)c1 (configuration not stated) |
| 158 nM | COC(=O)CCCNC1CCCC1c1ccc(Cl)c(Cl)c1 (configuration not stated) |

| SMILES | IC50 |
| --- | --- |
| CCCCNC1CCCC1c1ccc(Cl)c(Cl)c1 (configuration not stated) | 251 nM |
